Measured values taken from patent US10829798B2, “DNA-linked enzyme-coupled assays” (THE REGENTS OF THE UNIVERSITY OF CALIFORNIA, priority 2014, dated 2020).

Molecular target: T1, GT05 (UGT72B1 (Q9M156)) (Arabidopsis thaliana, UniProt Q9M156)
T1 construct: made in house; host or cells: PURExpress In Vitro Protein Synthesis Kit (NEB E6800L), cell-free transcription/translation, linear DNA amplified from pET15b construct
T1 sequence (Q9M156 1-480): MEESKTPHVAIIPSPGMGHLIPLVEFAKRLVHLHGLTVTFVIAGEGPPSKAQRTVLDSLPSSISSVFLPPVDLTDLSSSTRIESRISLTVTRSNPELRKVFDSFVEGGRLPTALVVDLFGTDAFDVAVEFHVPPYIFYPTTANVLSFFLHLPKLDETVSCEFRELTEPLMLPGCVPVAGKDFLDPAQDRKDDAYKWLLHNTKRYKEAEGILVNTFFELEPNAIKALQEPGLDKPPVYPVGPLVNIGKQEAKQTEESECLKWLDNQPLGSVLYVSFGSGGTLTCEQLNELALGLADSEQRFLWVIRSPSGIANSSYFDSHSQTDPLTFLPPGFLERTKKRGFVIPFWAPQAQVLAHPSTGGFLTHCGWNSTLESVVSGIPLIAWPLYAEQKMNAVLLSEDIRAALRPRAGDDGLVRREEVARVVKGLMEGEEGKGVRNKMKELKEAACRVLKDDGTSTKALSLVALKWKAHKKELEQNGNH
Assay: qPCR DLEnCA, cell-free transcription/translation-derived GT05
Assay type: biochemical
Settings: GT05 DNA 5 nM, chemical 1 mM, UDP-Glc 2 μM, probe 0.2 nM; low recovery = substrate glucosylated
Method: FIG. 4A-FIG. 4D. qPCR DLEnCA and substrate specificity studies. A. Chemicals used as substrates in subsequent assays: (i) known substrates of OleD; (ii) flavone library; (iii) known substrates of GT05 (UGT72B1 (Q9M156)) and GT06 (UGT89B1 (AT1 G73880)). B. DNA encoding OleD (5 nM) was incubated in a cell-free transcription/translation system for 3 hours at 37° C., followed by the addition of chemical (1 mM) and UDP-Glc (2 μM). After a subsequent incubation of 3 hours, TbGT and probe (0.2 nM) were added. After probe purification and MfeI digestion, probe integrity was identified using qPCR. Percent recovery of probe is reported (n=8; error bars=standard error). C. DNA encoding OleD (5 nM) was incubated for 3 hours at 37° C. in a cell-free transcription/translation system, followed by the addition of flavone (1 mM) and UDP-Glc (2 μM). After a subsequent incubation of 3 hours, TbGT and probe (0.2 nM) were added. After probe purification and MfeI addition, probe integrity was identified using qPCR. Percent recovery of probe is reported (n=8; error bars=standard error). D. DNA encoding OleD, GT05, or GT06 (5 nM) were incubated for 3 hours at 37° C. in a cell-free transcription/translation system, followed by the addition of chemical (1 mM) and UDP-Glc (2 μM). After a subsequent incubation of 3 hours, TbGT and probe (0.2 nM) were added. After probe purification and MfeI digestion, probe integrity was identified using qPCR. Percent recovery of probe is reported as a heat map (n=8) (specific recovery figures and percent error can be found in FIG. 16). *=p<0.05 vs. no chemical control.
PCR tubes were used for most reactions. All incubations were performed at 37° C. Assays were initiated upon the addition of linear DNA (5 nM final concentration) to 4 μl PURExpress Solution A and 3 μl PURExpress Solution B. Samples were incubated at 37° C. for 3 hours prior to addition of UDP-Glucose and chemical (1 mM final concentration) in DMSO. Samples were incubated for an additional 3 hours prior to addition of 1 unit T4 Phage β-glucosyltransferase containing 0.2 nM probe. […]

## O=c1c(O)c(-c2ccc(O)cc2)oc2cc(O)cc(O)c12 [I, kaempferol]
  recovery of probe: 32%
